The text below walks through data of US20190336427A1, “NOVEL PROTEIN TRANSDUCTION DOMAIN AND USE THEREOF” (BIOCELTRAN CO., LTD., priority 2016, published 2019).

Ends that are not written are not given here.

One data set has as its system HaCaT cells. In words: Cytotoxicity of cell-penetrating peptides (WST, cell viability). The settings on record: HaCaT cells, 2.5, 5 and 10 μM peptide, 24 hours. Here is the method: Cytotoxicity was evaluated to identify whether or not the peptides of the present invention could be harmlessly used to deliver polymers in vivo.
HaCaT cells cultured in DMEM containing 10% FBS were seeded in a unit dose of 2.5×10^4 on a 96-well plate, cultured for 24 hours and washed with HBSS twice. Cell-penetrating peptides, PEP1 and STeP, were dissolved at different concentrations of 50 μM, 100 μM and 200 μM in D.W. and diluted in a medium such that the final concentrations reached 2.5 μM, 5 μM and 10 μM, and the cells were treated with the resulting peptides and then reacted for 24 hours at 37° C. in a 5% CO2 incubator. After culture, the supernatant was removed, a WST solution was diluted in a medium in a ratio of 1:9 and the cells were treated with the medium. After culturing for 3 hours, absorbance was measured at 450 nm, and cell viability was calculated for cells of a peptide non-treatment group and cells of a peptide treatment group.

For data set [1], the system named is porcine skin. Briefly: Skin penetration of cell-penetrating peptide-FGF2 mixture by tissue staining, Franz cells with porcine skin. The format is in vitro ADME. Conditions: 500 μg, 24 hours. Here is the method:
For skin penetration analysis of FGF2 through tissue staining, Franz cells using the porcine skin were treated with equal amounts (500 μg) of FGF2, PEP1-FGF2 and a STeP-FGF2 mixture. After 24 hours, the porcine skin between the Franz cells was taken out, washed with distilled water and subjected to tissue staining. The porcine skin site exposed to donor cells was cut and then immobilized in 10% buffered formalin to produce a paraffin block, and tissues were sectioned to 7 μm using a microtome. Then, the tissues were mounted on a slide, paraffin was removed, the residue was hydrated and tissue fragments were blocked for 30 minutes. The blocked tissues were treated with […] (cell signaling, green) and reacted at 4° C. for 18 hours. On the following day, the resulting tissues were washed with PBST, treated with an Alexa Fluor 488 secondary antibody at room temperature for 2 hours and washed with PBST again. Then, the tissue fragments were dyed with a solution of a nuclear staining reagent (DAPI) diluted at 1/5000 in PBS in the absence of light for 10 minutes and washed with PBS three times. The tissue fragments were mounted and then analyzed with a confocal scanning laser microscope.

Data set [2] deals with porcine skin. In words: Skin penetration of cell-penetrating peptide-FITC mixture, Franz cells with porcine skin. Conditions: 100 μM mixture, FITC:peptide molar ratio 1:0 and 1:2. The format is in vitro ADME. The method, then:
Franz cells (diameter of 9 mm) were used in order to identify whether or not penetration of FITC into the skin as well as cells was improved under the condition of non-covalent bonding to STeP.
FITC and cell-penetrating peptides (PEP1, STeP) dissolved in borax buffer (pH 8.0) were prepared. The FITC and cell-penetrating peptides (PEP1, STeP) were mixed in a molar ratio of 1:0 and 1:2, and reacted at 37° C. for 30 minutes, and the top of Franz cells were treated with 100 μM of the finally obtained cell-penetrating peptide-FITC mixture. The porcine skin was isolated and washed with PBS three times. After washing, the cryo mold was treated with an OCT embedding matrix (Cell Path Ltd., UK) and tissues were frozen at −70° C. The frozen tissues were cross-sectioned to a thickness of 7 μm at −20° C. using a cryotome (HM520, Germany) to produce fragment slides. To dye the nucleus of the skin cells, tissue fragments fixed to a slide glass were dyed with a solution of a nuclear staining reagent (DAPI) diluted at 1/5000 in PBS in the absence of light for 10 minutes and washed with PBS three times. The resulting cells were mounted and then analyzed with a confocal scanning laser microscope.

Data set [3] addresses EGF receptors in cells (mouse fibroblasts, Balb/c 3T3 clone A31 cells) (mouse) (UniProt Q01279). Briefly: cell-based or functional assay.

As for KETWWETWWTEWSQPYGRKKRRQRRRC [STeP], the “cytotoxicity (cell viability)” value in the data set with HaCaT cells was “did not exhibit cytotoxicity”.

As for “FGF2: fibroblast growth factor-2, basic fibroblast growth factor”, the “skin penetration of FGF2 (delivery into porcine skin tissues)” value with porcine skin [1] is recorded as “not delivered into porcine skin tissues at all”.

Take fluorescein isothiocyanate [FITC]: the “skin penetration of FITC” value in the data set on porcine skin [2] is reported as “present in the cornified layer of the porcine skin”.

In data set [3], “PEP1-EGF recombinant protein (from UniProt P01133 23-1207) (ligand)” came in with a Cell proliferation activity (unit/mM), WST assay on Balb/c 3T3 clone A31 cells of 1.39e+07 unit/mM.
